Source: US7176185B2, “Short peptide carrier system for cellular delivery of agent” (TSRL, Inc., priority 2003, dated 2007)

How the values were obtained:
hPepT1 = molecular target: T1, hPepT1 (Homo sapiens, UniProt P46059); assay: Inhibition of LALA uptake into DC5 cells by competitive substrates; assay type: cell-based; settings: 30 minutes; for Inhibition of LALA uptake (FIG. 7, specificity): 25 μM LALA, 20 mM dipeptide or 40 mM amino acid
T1 construct: expressed in transfected cells; host or cells: DC5 = human medulloblastoma cell line Dpar transfected with a eukaryotic expression plasmid holding the hPept1 gene
T1 sequence (P46059 1-708): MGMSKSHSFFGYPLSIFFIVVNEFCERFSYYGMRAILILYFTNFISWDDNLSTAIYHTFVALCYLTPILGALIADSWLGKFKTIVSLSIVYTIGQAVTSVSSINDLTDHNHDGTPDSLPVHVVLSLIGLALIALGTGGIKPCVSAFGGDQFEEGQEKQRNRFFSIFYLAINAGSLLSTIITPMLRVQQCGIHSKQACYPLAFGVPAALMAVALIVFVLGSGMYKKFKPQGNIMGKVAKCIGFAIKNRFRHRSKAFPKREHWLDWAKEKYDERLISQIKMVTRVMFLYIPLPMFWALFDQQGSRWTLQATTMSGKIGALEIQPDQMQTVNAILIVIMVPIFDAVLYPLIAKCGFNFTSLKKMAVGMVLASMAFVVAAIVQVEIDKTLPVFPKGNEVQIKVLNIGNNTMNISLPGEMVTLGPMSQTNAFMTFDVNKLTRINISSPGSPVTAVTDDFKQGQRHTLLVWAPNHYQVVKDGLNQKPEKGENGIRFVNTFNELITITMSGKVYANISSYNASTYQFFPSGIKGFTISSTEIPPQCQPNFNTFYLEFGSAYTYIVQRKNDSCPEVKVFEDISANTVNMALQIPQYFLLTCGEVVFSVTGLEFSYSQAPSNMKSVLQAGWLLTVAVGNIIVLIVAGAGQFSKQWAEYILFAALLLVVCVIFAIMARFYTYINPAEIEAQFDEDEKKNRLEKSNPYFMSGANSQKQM
Method: After 30 minutes the cells are washed and the fluorescence measured in the cells.
DC5 and Dpar cells are incubated in transport buffer and the indicated concentrations of LALA added ? and (¦), respectively. These experiments are repeated in the presence of 20 mM Gly-Pro for DC5 (⋄) and Dpar (?). After 30 minutes, the cells are washed and processed for fluorescent determination. […] After 30 minutes the cells are washed and the fluorescence measured in the cells. […] Fluorescence imagining of LALA in DC5 cells is shown in FIG. 8, where cells on a polylysine coated slide are incubated in the transport buffer with 50 μM LALA in the presence (right image) or absence (left image) the hPepT1 competitive inhibitor Gly-Pro (20 mM) for 20 minutes at room temperature. Cells are washed with cold PBS and viewed with an inverted microscope and imaged with a digital camera, with the images being at the same magnification and exposure time.

[1] = molecular target: T2, hpept1 dipeptide transporter (Homo sapiens, UniProt P46059); assay: Inhibition of 3H-Gly-Sar uptake in DC5 cell line (Ki determination); assay type: cell-based; settings: 50 uM 3H-Gly-Sar, 10 min, 37° C., unit inferred, mM, read-out: TSRL - Ki
T2 construct: expressed in transfected cells; host or cells: DC5 = human medulloblastoma cell line Dpar transfected with a eukaryotic expression plasmid holding the hPept1 gene
T2 sequence (P46059 1-708): T1 sequence (P46059 1-708)
Text: The developed system functions as an initial screen for interaction with the dipeptide transporter by measuring the ability of a given test compound to inhibit the uptake of the marker dipeptide ^3H-Gly-Sar. Using this system in a 96-well format, one can rapidly screen compounds for their ability to bind to the dipeptide transporter by measuring the inhibition constant (Ki) of the compound against Gly-Sar uptake. In this assay, a positive result indicates binding, but not necessarily transport. Positive results are assessed for actual transport in conventional uptake assays.
The inhibitory Ki for a given compound is determined in DC5 cell line using the radioactive substrate 3H-glycine-sarcosine (GS). DC5 cells were plated (12,000 cells/well) in 96-well tissue culture plates (Falcon) and allowed to grow for 2 days. The cells were washed once with 200 ul of uptake buffer and aspirated. The plates were cooled to 4° C. and 25 ul of uptake buffer containing 50 uM Gly-Sar (0.5 uCi/ml) was added. The uptake buffer also contained the test β-lactam antibiotic, Cefaclor, over a range of concentrations. Uptake was initiated by placing the plate in a shaker water bath (37° C.) and terminated at 10 min by rapid washing with multiple changes of 4° C. PBS (Sigma). The radioactive peptide was extracted from the cell layer with 200 ul of methanol:water (1:1) and counted in 4 ml of CytoScint ES™ scintillation cocktail (ICN). Non-linear regression analysis of the data was used to determine the IC50 using the solver function in Microsoft Excel spreadsheets.

[2] = literature value (Bretschneider et al. 1999); 'parenteral' marks drugs given parenterally; cited from earlier work
[3] = molecular target: T3, DC5 cell line overexpressing HPEPT1 (Homo sapiens, UniProt P46059); assay: LALA fluorescent uptake in DC5 cells; assay type: cell-based; settings: transport buffer, 30 minutes, fluorescence
T3 construct: expressed in transfected cells; host or cells: DC5 = human medulloblastoma cell line Dpar transfected with a eukaryotic expression plasmid holding the hPept1 gene
T3 sequence (P46059 1-708): T1 sequence (P46059 1-708)
Method: (§1) FIG. 6 is a graph showing the uptake of LALA in DC5 and Dpar as a function of LALA concentration. DC5 and Dpar cells are incubated in transport buffer and the indicated concentrations of LALA added ? and (¦), respectively. These experiments are repeated in the presence of 20 mM Gly-Pro for DC5 ? and Dpar (?). After 30 minutes, the cells are washed and processed for fluorescent determination.
(§2) […] and not Dpar specifically uptake LALA. DC5 and Dpar cells are incubated in transport buffer and the indicated concentrations of LALA added ? and (¦), respectively. These experiments are repeated in the presence of 20 mM Gly-Pro for DC5 (⋄) and Dpar (?). After 30 minutes, the cells are washed and processed for fluorescent determination. […] After 30 minutes the cells are washed and the fluorescence measured in the cells. […] Because the marker probe is fluorescent, the system is amenable to more rapid throughput, through the use of automated fluorescent plate readers. Fluorescence imagining of LALA in DC5 cells is shown in FIG. 8, where cells on a polylysine coated slide are incubated in the transport buffer with 50 μM LALA in the presence (right image) or absence (left image) the hPepT1 competitive inhibitor Gly-Pro (20 mM) for 20 minutes at room temperature. […]

Dpar cells = assay: LALA fluorescent uptake in parental Dpar cells; assay type: cell-based, human; settings: 30 minutes, fluorescence
Method: as §1
FIG. 7 is a bar graph showing specificity of LALA uptake. 25 μM of LALA is incubated in the presence 20 mM Gly-Sar ? 20 mM Gly-Pro ? 40 mM phenylalanine ? and 40 mM proline ? in either the DC5 or the Dpar, cell line. After 30 minutes the cells are washed and the fluorescence measured in the cells. […] There is minimal LALA uptake in the parental line Dpar.
as §2, with “LALA.” for “LALA. DC5 and Dpar cells are incubated in transport buffer and the indicated concentrations of LALA added ? and (¦), respectively. These experiments are repeated in the presence of 20 mM Gly-Pro for DC5 (⋄) and Dpar (?). After 30 minutes, the cells are washed and processed for fluorescent determination.”

Row | SMILES | Ki [1] [mM] | Bioavailability [2] | further results
1 | O=C(O)[C@@H]1CCCN1 [proline] |  |  | Inhibition of LALA uptake (FIG. 7, specificity) (hPepT1): not by amino acids
2 | CC1=C(C(=O)O)N2C(=O)[C@@H](NC(=O)[C@H](N)C3=CCC=CC3)[C@H]2SC1 [Cephradine] | 7.02 | 100 | 
3 | NCC(=O)O.O=C(O)[C@@H]1CCCN1 [Gly-Pro, Glycine-Proline] |  |  | Inhibition of LALA uptake (FIG. 7, specificity) (hPepT1): strongly inhibited; Inhibition of LALA uptake (FIGS. 5 and 6) (hPepT1; 20 mM Gly-Pro, range of LALA concentrations): strongly inhibited
4 | CO/N=C(\C(=O)N[C@@H]1C(=O)N2C(C(=O)O)=C(COC(N)=O)CS[C@H]12)c1ccco1 [Cefuroxime] | 23.2 | <1 parenteral | 
5 | N[C@@H](Cc1ccccc1)C(=O)O [phenylalanine] |  |  | Inhibition of LALA uptake (FIG. 7, specificity) (hPepT1): not by amino acids
6 | Cc1c(CC(=O)NCCCCC(NC(=O)C(C)N)C(=O)O)c(=O)oc2cc(N)ccc12 [LALA, L-Ala-Lys-Nε-AMCA] |  |  | LALA uptake in DC5 [3]: specifically taken up; LALA uptake in parental line Dpar (Dpar cells): minimal
7 | CO/N=C(\C(=O)N[C@@H]1C(=O)N2C(C(=O)O)=C(CSc3nc(=O)c(=O)[nH]n3C)CS[C@H]12)c1csc(N)n1 [Ceftriaxon] | > 20 | <5 parenteral | 

Second part, led by results:

Row | Ki [1] [mM] | SMILES | Bioavailability [2] | further results
8 | 16.4 | Cn1nnnc1SCC1=C(C(=O)O)N2C(=O)[C@@H](NC(=O)[C@H](O)c3ccccc3)[C@H]2SC1 [Cefamandole] | <1 parenteral | 
9 | 5.39 | N[C@@H](C(=O)N[C@@H]1C(=O)N2C(C(=O)O)=C(Cl)CS[C@H]12)c1ccccc1 [Cefaclor] | 100 | 
10 | 11.1 | CC(=O)OCC1=C(C(=O)O)N2C(=O)[C@@H](NC(=O)Cc3cccs3)[C@H]2SC1 [Cephalothin] | <5 parenteral | 
11 | 2.7 | CC1=C(C(=O)O)N2C(=O)[C@@H](NC(=O)[C@H](N)c3ccc(O)cc3)[C@H]2SC1 [Cefadroxil] | 100 | 
